SMILES strings stand for the structures.

The subject of experiment [1] is AGS (KRAS G12D) cells, phospho-ERK. As to the kind of experiment: pERK In Cell Western (ICW) assay (Method B). Format: cell-based. To be noted: 3 hours. The procedure: pERK ICW is a high throughput screening assay to evaluate the cellular potency of mutant KRAS small molecule inhibitors. KRAS mutant cell line AGS (KRAS^G12D) were purchased from ATCC and maintained in DMEM and RPMI medium supplemented with 10% fetal bovine serum and Penicillin/Streptomycin.
Cells grown in exponential phase were trypsinized, resuspended in fresh media, and viable cells were counted using a cell counter with Trypan Blue (BioRad TC20). Cells were seeded into 384-well plate (Greiner 781091) at density of 5,000 cells/well for AGS and allowed to grow overnight in a 37° C. CO2 incubator. The next day, compounds were dispensed into wells with a ½ log, 10-point serial dilution and top concentration of 10 μM using Tecan D300e dispenser and incubated for 3 hours in a 37° C. CO2 incubator. Cells were then fixed with paraformaldehyde (Electron Microscopy Sciences, 15710, 4% final concentration) for 30 min, permeabilized with wash buffer (1×PBS+0.1% Triton X-100) for 30 min and blocked with Odyssey blocking buffer (Li—COR 927-70001) for 1 hour, all at room temperature (RT). Phospho-ERK antibody (CST 4370L) was diluted 1:500 in Odyssey blocking+0.2% Tween 20 and incubated with cells overnight at 4° C. The next day, plates were washed 5× with wash buffer, incubated with IRDye 800 CW, Goat anti-Rabbit secondary antibody (Li—COR 926-32211, 1:500) and DRAQ5 (CST 4084L, 1:5,000) diluted in Odyssey blocking+0.2% Tween 20 for 1 hour, washed 5×, and imaged on an Odyssey CLx imaging system.
For data analysis, signal intensities from 800 (phosphor-ERK) and 700 (DRAQ5) channels were extracted, and phospho-ERK signals were normalized to DRAQ5 signals for each well and percent of DMSO control values were computed. Data were then imported into Graphpad Prism to compute half-maximal inhibitory concentrations (IC50) using a 4-parameter variable slope model. Z-factor for each plate was computed from signals derived from wells treated with either DMSO or 5 μM of Trametinib. AGS pERK ICW (Method B) IC50 (uM) values of selected compounds are depicted in Table 2 with compounds having a value 0.001 uM to 0.01 uM as ++++; >0.01 uM to 0.1 uM as +++; >0.1 uM to 1 uM as ++; 1 uM to 10 uM as + and >10 uM as NA.

Experiment [2] has as its target T1, GST-tagged KRAS G12D (2-169) (Homo sapiens, UniProt P01116, G12D).
T1 construct: GST-tagged KRAS^G12D (2-169, Reaction Biology, MSC-11-539); purchased Reaction Biology MSC-11-539 (KRAS G12D); MSC-11-502 (SOS1cat)
As to the kind of experiment: Nucleotide exchange assay (NEA), HTRF of SOS-mediated GTP-DY-647P1 binding. It counts as biochemical. To be noted: 5 nM GST-KRAS G12D, 20 nM SOScat, 150 nM GTP; compound 1 h at RT. In short, it runs like this: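 SOS1cat (564-1049)-driven loading of GTP-DY-647P1 onto KRAS G12D, read by HTRF with anti-GST Tb cryptate donor; compound preincubated with KRAS 1 h at RT. Final 5 nM KRAS, 20 nM SOScat, 150 nM GTP, pH 7.3 HEPES buffer; read up to 90 min at RT. Blanked to no-SOS1; 4-parameter fit of % inhibition.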

T1 sequence (P01116 2-169 isoform P01116-2 G12D): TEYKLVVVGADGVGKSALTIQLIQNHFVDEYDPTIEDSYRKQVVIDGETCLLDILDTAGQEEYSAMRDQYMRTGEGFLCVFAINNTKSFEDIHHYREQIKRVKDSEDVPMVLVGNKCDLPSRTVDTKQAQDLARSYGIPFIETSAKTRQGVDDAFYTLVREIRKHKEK

With `CN(C)C(=O)c1cc2n(n1)CCCN(c1nc(OC[C@@]34CCCN3C[C@H](F)C4)nc3c1CO[C@]1(CCc4c(Cl)cccc41)C3)C2` [Compound 27B, 5-[(7R)-4′-chloro-2-[[(2R,8S)-2-fluoro-1,2,3,5,6,7-hexahydropyrrolizin-8-yl]methoxy]spiro[5,8-dihydropyrano[4,3-d]pyrimidine-7,1′-indane]-4-yl]-N,N-dimethyl-4,6,7,8-tetrahydropyrazolo[1,5-a][1,4]diazepine-2-carboxamide], the IC50 is 0.1 to 1 µM in experiment [1] and less than 0.01 µM in experiment [2].

For `CN1Cc2c(nc(OC[C@@]34CCCN3C[C@H](F)C4)nc2N2CCCCCC2)C[C@]12CCc1c(Cl)cccc12` [Compound 28A, (7S)-4-(azepan-1-yl)-4′-chloro-2-[[(2R,8S)-2-fluoro-1,2,3,5,6,7-hexahydropyrrolizin-8-yl]methoxy]-6-methyl-spiro[5,8-dihydropyrido[4,3-d]pyrimidine-7,1′-indane]], the IC50 was more than 10 µM in experiment [1] (Homo sapiens) and 1 to 20 µM in experiment [2].

For the molecule `N#CNC1CCCN(c2nc(OC[C@@]34CCCN3C[C@H](F)C4)nc3c2COC2(CCc4c(Cl)cccc42)C3)C1` (stereo partly drawn) [Compound 29, [1-[4′-chloro-2-[[(2R,8S)-2-fluoro-1,2,3,5,6,7-hexahydropyrrolizin-8-yl]methoxy]spiro[5,8-dihydropyrano[4,3-d]pyrimidine-7,1′-indane]-4-yl]-3-piperidyl]cyanamide], the IC50 lay in the range of 1 to 10 µM in experiment [1] (Homo sapiens) and 0.1 to 1 µM in experiment [2].

For `CN(C)C(=O)c1cc2n(n1)CCCN(c1nc(OC[C@@]34CCCN3C[C@H](F)C4)nc3c1CN(C)C1(CCCc4ccc(O)cc41)C3)C2` (stereo partly drawn) [Compound 39, 5-[7′-hydroxy-6-methyl-2-[[(2R,8S)-2-fluoro-1,2,3,5,6,7-hexahydropyrrolizin-8-yl]methoxy]spiro[5,8-dihydropyrido[4,3-d]pyrimidine-7,1′-tetralin]-4-yl]-N,N-dimethyl-4,6,7,8-tetrahydropyrazolo[1,5-a][1,4]diazepine-2-carboxamide], the IC50 in experiment [1] (Homo sapiens) was 1 to 10 µM; in experiment [2], less than 0.01 µM.

For `CN(C)C(=O)c1cc2n(n1)CCCN(c1nc(OC[C@@]34CCCN3C[C@H](F)C4)nc3c1CN(C)[C@@]1(CCCc4ccc(O)cc41)C3)C2` [Compound 39A, 5-[(7S)-2-[[(2R,8S)-2-fluoro-1,2,3,5,6,7-hexahydropyrrolizin-8-yl]methoxy]-7′-hydroxy-6-methyl-spiro[5,8-dihydropyrido[4,3-d]pyrimidine-7,1′-tetralin]-4-yl]-N,N-dimethyl-4,6,7,8-tetrahydropyrazolo[1,5-a][1,4]diazepine-2-carboxamide], the results for the IC50 in experiment [1] (Homo sapiens) and in experiment [2] were 0.1 to 1 µM and less than 0.01 µM, respectively.

As for `Cc1c(C(=O)N(C)C)nn2c1CN(c1nc(OC[C@@]34CCCN3C[C@H](F)C4)nc3c1CO[C@@]1(CCc4c(Cl)cccc41)C3)CCC2` [Compound 42, 5-[(7S)-4′-chloro-2-[[(2R,8S)-2-fluoro-1,2,3,5,6,7-hexahydropyrrolizin-8-yl]methoxy]spiro[5,8-dihydropyrano[4,3-d]pyrimidine-7,1′-indane]-4-yl]-N,N,3-trimethyl-4,6,7,8-tetrahydropyrazolo[1,5-a][1,4]diazepine-2-carboxamide], the values for the IC50 in experiment [1] (Homo sapiens) and in experiment [2] were 0.1 to 1 µM and less than 0.01 µM, respectively.

In the case of `O=C(c1nn2c(c1Cl)CN(c1nc(OC[C@@]34CCCN3C[C@H](F)C4)nc3c1CO[C@@]1(CCc4c(Cl)cccc41)C3)CCC2)N1CCOCC1` [Compound 45, [3-chloro-5-[(7S)-4′-chloro-2-[[(2R,8S)-2-fluoro-1,2,3,5,6,7-hexahydropyrrolizin-8-yl]methoxy]spiro[5,8-dihydropyrano[4,3-d]pyrimidine-7,1′-indane]-4-yl]-4,6,7,8-tetrahydropyrazolo[1,5-a][1,4]diazepin-2-yl]-morpholino-methanone], the IC50 in experiment [1] (Homo sapiens) is 0.1 to 1 µM; in experiment [2] it was less than 0.01 µM.

With `C[C@@]1(NC#N)CCCN(c2nc(OC[C@@]34CCCN3C[C@H](F)C4)nc3c2COC2(CCc4c(Cl)cccc42)C3)C1` (stereo partly drawn) [Compound 46A, [(3R)-1-[(7*)-4′-chloro-2-[[(2R,8S)-2-fluoro-1,2,3,5,6,7-hexahydropyrrolizin-8-yl]methoxy]spiro[5,8-dihydropyrano[4,3-d]pyrimidine-7,1′-indane]-4-yl]-3-methyl-3-piperidyl]cyanamide; 2,2,2-trifluoroacetic acid], the IC50 in experiment [1] was more than 10 µM; in experiment [2] it was 0.1 to 1 µM.

For `CN(C)C(=O)c1nn2c(c1Cl)CN(c1nc(OCC3(CN4CCOCC4)CC3)nc3c1CO[C@@]1(CCc4c(Cl)cccc41)C3)CCC2` [Compound 47, 3-chloro-5-[(7S)-4′-chloro-2-[[1-(morpholinomethyl)cyclopropyl]methoxy]spiro[5,8-dihydropyrano[4,3-d]pyrimidine-7,1′-indane]-4-yl]-N,N-dimethyl-4,6,7,8-tetrahydropyrazolo[1,5-a][1,4]diazepine-2-carboxamide], the IC50 in experiment [1] (Homo sapiens) was 1 to 10 µM; in experiment [2], less than 0.01 µM.

As to `O=C(c1nn2c(c1Cl)CN(c1nc(OC[C@@]34CCCN3C[C@H](F)C4)nc3c1CO[C@@]1(CCc4c(Cl)cccc41)C3)CCC2)N1CCNCC1` [Compound 49, [3-chloro-5-[(7S)-4′-chloro-2-[[(2R,8S)-2-fluoro-1,2,3,5,6,7-hexahydropyrrolizin-8-yl]methoxy]spiro[5,8-dihydropyrano[4,3-d]pyrimidine-7,1′-indane]-4-yl]-4,6,7,8-tetrahydropyrazolo[1,5-a][1,4]diazepin-2-yl]-piperazin-1-yl-methanone], the IC50 in experiment [1] (Homo sapiens) is 0.1 to 1 µM; in experiment [2] it was less than 0.01 µM.

On to `CN1CCN(C(=O)c2nn3c(c2Cl)CN(c2nc(OC[C@@]45CCCN4C[C@H](F)C5)nc4c2CO[C@@]2(CCc5c(Cl)cccc52)C4)CCC3)CC1` [Compound 50, [3-chloro-5-[(7S)-4′-chloro-2-[[(2R,8S)-2-fluoro-1,2,3,5,6,7-hexahydropyrrolizin-8-yl]methoxy]spiro[5,8-dihydropyrano[4,3-d]pyrimidine-7,1′-indane]-4-yl]-4,6,7,8-tetrahydropyrazolo[1,5-a][1,4]diazepin-2-yl]-(4-methylpiperazin-1-yl)methanone], for which the values for the IC50 in experiment [1] (Homo sapiens) and in experiment [2] were 0.1 to 1 µM and less than 0.01 µM, respectively.

For the molecule `CN(C)C(=O)c1nn2c(c1Cl)CN(c1nc(OC[C@@]34CCCN3C[C@H](F)C4)nc3c1CN(C)[C@@]1(CCc4ccccc41)C3)CCC2` [Compound 53, 3-chloro-5-[(7S)-2-[[(2R,8S)-2-fluoro-1,2,3,5,6,7-hexahydropyrrolizin-8-yl]methoxy]-6-methyl-spiro[5,8-dihydropyrido[4,3-d]pyrimidine-7,1′-indane]-4-yl]-N,N-dimethyl-4,6,7,8-tetrahydropyrazolo[1,5-a][1,4]diazepine-2-carboxamide], the results for the IC50 in experiment [1] (Homo sapiens) and in experiment [2] were 0.01 to 0.1 µM and less than 0.01 µM, respectively.

As to `CN(C)C(=O)c1nn2c(c1Cl)CN(c1nc(OC[C@@]34CCCN3C[C@H](F)C4)nc3c1CN(C)[C@@]1(CCc4c(Cl)cccc41)C3)CCC2` [Compound 55, 3-chloro-5-((S)-4-chloro-2′-(((2R,7aS)-2-fluorotetrahydro-1H-pyrrolizin-7a(5H)-yl)methoxy)-6′-methyl-2,3,5′,8′-tetrahydro-6′H-spiro[indene-1,7′-pyrido[4,3-d]pyrimidin]-4′-yl)-N,N-dimethyl-5,6,7,8-tetrahydro-4H-pyrazolo[1,5-a][1,4]diazepine-2-carboxamide], the values for the IC50 in experiment [1] (Homo sapiens) and in experiment [2] were 0.1 to 1 µM and less than 0.01 µM, respectively.

For the molecule `CN1Cc2c(nc(OC[C@@]34CCCN3C[C@H](F)C4)nc2N2CCC[C@]3(C2)NC(=O)NC3=O)C[C@]12CCc1ccccc12` [Compound 60, (5R)-9-[(7S)-2-[[(2R,8S)-2-fluoro-1,2,3,5,6,7-hexahydropyrrolizin-8-yl]methoxy]-6-methyl-spiro[5,8-dihydropyrido[4,3-d]pyrimidine-7,1′-indane]-4-yl]-1,3,9-triazaspiro[4.5]decane-2,4-dione], the values for the IC50 in experiment [1] (Homo sapiens) and in experiment [2] were more than 10 µM and 0.1 to 1 µM, respectively.

One may read the IC50 as the concentration that inhibits the measured activity by half.

Values taken from US11912723B2, “KRAS modulators and uses thereof” (Quanta Therapeutics, Inc., priority 2022, dated 2024).
